Here are results for two molecules from US20200069805A1, “PHARMACEUTICAL COMPOSITIONS WITH SYNCHRONIZED SOLUBILIZER RELEASE” (Lipocine Inc., priority 2003, published 2020).

In brackets after ≈: the same amount, converted by molar mass.

For series [1] the following is noted: cited from earlier work.
Series [2] in a line: Equilibrium aqueous solubility of cilostazol in simulated intestinal fluid with solubilizers. Type of series: physicochemical. The method, then: Solutions of simulated intestinal fluid without enzyme (USP 26, pH 6.8) were prepared over a range of solubilizer concentrations. Excess cilostazol was added and equilibrated with gentle mixing at controlled temperature (37±0.5° C.). The aqueous solutions with excess drug were then filtered ([…] nominal pore size) and the clear filtrate was diluted and assayed by HPLC for cilostazol concentrations.

The conditions of series [3]: immediate release tablet dosage form; high fat meal; cited from earlier work.

`COc1ccccc1OCCNCC(O)COc1cccc2[nH]c3ccccc3c12` (centres unmarked) [Carvedilol]: in series [1], the “equilibrium solubility of the acid addition HCl salt” value was “about 1 mg/ml”, the pKa entry is given as “about 7.6” and the water solubility entry is recorded as “less than 0.001 mg/ml”. Further, the “aqueous solubility at low pH” value in series [1] (low pH, limited by relatively insoluble hydrochloric acid addition salt) is given as “less than 1 mg/ml”.
On to `O=C1CCc2cc(OCCCCc3nnnn3C3CCCCC3)ccc2N1` [cilostazol], for which the results for the “solubility enhancement of cilostazol” value in series [2] (Cremphor RH40 at 0.05% w/v) and in series [2] (Cremphor RH40 at 1% w/v) were roughly 30% and roughly 5 fold, respectively. In addition, the “increase in solubility of cilostazol over its intrinsic aqueous solubility” value in series [2] (d-a-tocopherol polyethylene glycol 1000 succinate at 0.05% w/v) is roughly 60%; in series [2] (d-a-tocopherol polyethylene glycol 1000 succinate at 1% w/v), roughly 10 fold. Further, the solubility (in general, how much of the substance goes into solution per volume) in series [2] (simulated intestinal fluid without enzyme (USP 26), fassgf or other biorelevant, thermodynamic from solid, SIF without enzyme pH 6.8, 37 °C, no solubilizer, read-out: intrinsic solubility of cilostazol) is 6.5 µg/mL (≈ 17.6 µM). The AUC increase result in series [3] is reported as “about 25%”. Further, the Cmax increase result in series [3] is reported as “about 90%”.
